This note sets out measurements from patent publication US12440492B2, “Pharmaceutical compositions comprising AKT protein kinase inhibitors” (Genentech, Inc., priority 2016, dated 2025).

What all share (assay type): physicochemical
Series [1] is described as follows: Bulk density, tapped density and Carr index. The conditions noted are these: for Bulk density / Tapped density: monohydrochloride.
The nature of series [2]: Particle size distribution (d10, d50, d90) by laser diffraction. The text has this: FIG. 6 illustrates particle size distribution of the material of Example 6C (Batch HQ00003) spray dried with two-feed nozzle as obtained by laser diffraction A bimodal particle size distribution is obvious. FIG. 9 illustrates particle size distribution of spray dried material with rotary wheel nozzle, i.e. of the material of batch BS1506SA03 of Example 13 (Table 20) obtained using a Malvern Mastersizer 2000 equipped with Hydro 2000S wet sample dispersion unit (Malvern Instruments Ltd, Malvern/UK). A monomodal particle size distribution is obvious. The terms “d50 value” (sometimes also referred to as “d(0.5)-value”) and “mass-median diameter” (or MMD) can be used interchangeably and denote the average particle size by mass, i.e. the average equivalent diameter of a particle, which is defined as the diameter where 50% (w) of the particles of the ensemble have a larger equivalent spherical diameter, and the other 50% (w) have a smaller equivalent spherical diameter. In analogy, the term “d10-value” denotes the particle diameter wherein 10% (w) of the particles of the ensemble have a smaller equivalent spherical diameter. In analogy, the term “d90-value” denotes the particle diameter wherein 90% (w) of the particles of the ensemble have a smaller equivalent spherical diameter.

Series [3] is described as follows: Shear cell testing with Ring Shear Tester RST-XS. From the text:
Similar to the classification used by Jenike (Dietmar Schulze, Pulver und Schüttgüter, 2009 Springer Verlag Berlin/DE), one can define flow behaviour based on the flow function constant (ffc) as follows:
The larger the flow function constant ffc, i.e., the smaller the ratio of the unconfined yield strength (σc) to the consolidation stress (σ1), the better a bulk solid's flow.

The nature of series [4]: Solid state by X-ray powder diffraction. The conditions noted are these: * indicates absence of crystalline API; for Solid state / Polymorphy (X-Ray, XRPD): monohydrochloride. The text has this:
Bragg's law describes the diffraction of crystalline material with the equation “2d·sin(theta)=n·lambda”, wherein “d” denotes perpendicular distance (in Angstroms) between pairs of adjacent planes in a crystal (“d-spacing”), “theta” denotes the Bragg angle, “lambda” denotes the wavelength and “n” is an integer. When Bragg's law is fulfilled, the reflected beams are in phase and interfere constructively so that Bragg diffraction peaks are observed in the X-ray diffraction pattern. At angles of incidence other than the Bragg angle, reflected beams are out of phase and destructive interference or cancellation occurs. […] The XRPD pattern of an amorphous material is further characterized by one or more amorphous halos.
The term “XRPD” denotes the analytical method of X-Ray Powder Diffraction. The repeatability of the angular values is in the range of 2Theta±0.2°, more particularly in the range of 2Theta±0.1°. The term “approximately” given in combination with an angular value denotes the variance which is in the range of 2Theta±0.2°, particularly in the range of 2Theta±0.1°. The relative XRPD peak intensity is dependent upon many factors such as structure factor, temperature factor, crystallinity, polarization factor, multiplicity, and Lorentz factor. Relative intensities may vary considerably from one measurement to another due to preferred orientation effects. According to USP 941 (US Pharmacopoeia, 37th Edition, General Chapter 941), relative intensities between two samples of the same material may vary considerably due to “preferred orientation” effects. Anisotropic materials adopting preferred orientation will lead to anisotropic distribution of properties such as modulus, strength, ductility, toughness, electrical conductivity, thermal expansion, etc., as described e.g. in Kocks U. F. et al. (Texture and Anisotropy: Preferred Orientations in Polycrystals and Their Effect on Materials Properties, Cambridge University Press, 2000). In XRPD but also Raman spectroscopy, preferred orientations cause a change in the intensity distribution. Preferred orientation effects are particularly pronounced with crystalline APIs of relatively large particle size.

[5] abbreviates: spray-dried amorphous ipatasertib monohydrochloride, rotary wheel atomizer.
Setting [6] is: Pre-shear stress 1000 PA, 30 mL shear cell, monohydrochloride.
Setting [7] is: spray dried amorphous ipatasertib monohydrochloride powder.

Several values for one entry are separate records, joined by “and”; a condition that tells them apart may be missing. Equal entries are not always repeated. Structures can show the parent of a compound that is named as a salt.

Consider `CC(C)NC[C@@H](C(=O)N1CCN(c2ncnc3c2[C@H](C)C[C@H]3O)CC1)c1ccc(Cl)cc1` [BS1506SA07, ipatasertib monohydrochloride], for which, in series [1] (setting [5]), the Bulk density worked out at 0.42 gcm^−3 and the Tapped density came to 0.56 gcm^−3. In addition, in series [2] (setting [5]), the “Particle size d10” value came out at 13 μm, the “Particle size d50” value amounted to 32 μm and the “Particle size d90” value came out at 65 μm. Also, in series [3] (setting [6]), the “Consolidation stress (σ1)” value is recorded as 1705 PA and the “Flow Function Constant (ffc)” value came out at 3.1. Moreover, the “Polymorphy (X-Ray)” value in series [4] is listed as “amorphous*”.

As to `CC(C)NC[C@@H](C(=O)N1CCN(c2ncnc3c2[C@H](C)C[C@H]3O)CC1)c1ccc(Cl)cc1` [BS1506SA06, ipatasertib monohydrochloride], in series [1] (setting [5]), the Bulk density came to 0.41 gcm^−3 and the Tapped density worked out at 0.56 gcm^−3. For the same compound, in series [2] (setting [5]), the “Particle size d10” value turned out to be 12 μm, the “Particle size d50” value amounted to 32 μm and the “Particle size d90” value was 63 μm. Moreover, in series [3] (setting [6]), the “Consolidation stress (σ1)” value was 1683 PA and the “Flow Function Constant (ffc)” value turned out to be 3.2. Moreover, the “Polymorphy (X-Ray)” value in series [4] is recorded as “amorphous*”.

In the case of `CC(C)NC[C@@H](C(=O)N1CCN(c2ncnc3c2[C@H](C)C[C@H]3O)CC1)c1ccc(Cl)cc1` [Example 6C′, ipatasertib monohydrochloride], in series [1] (setting [7]), the “Carr Index” value is on record as 38%; the Bulk density is 0.262 gcm^−3 and 0.26 gcm^−3; the Tapped density is 0.423 gcm^−3 and 0.42 gcm^−3. In addition, in series [2] (setting [7]), the “Particle size d10” value came to 0.8 μm, the “Particle size d50” value is 3.0 μm and the “Particle size d90” value was 5.7 μm. Further, in series [3] (Pre-shear stress 1000 PA), the “Consolidation stress (σ1)” value is recorded as 2118 PA, the “Flow Function Constant (ffc)” value was determined as 1.08 and the tc amounted to 514 Pa. Moreover, in series [3] (Pre-shear stress 2000 PA), the “Consolidation stress (σ1)” value is 4844 PA, the “Flow Function Constant (ffc)” value is 1.09 and the tc came to 1095 Pa. In series [3] (Pre-shear stress 4000 PA), the “Consolidation stress (σ1)” value turned out to be 9557 PA, the “Flow Function Constant (ffc)” value stood at 1.12 and the tc is given as 2041 Pa. Further, in series [3] (across all pre-shear stresses), the ffc result is given as “around 1.1”. Besides, the flowability entry in series [3] (shear cell testing) is “very poor flowability”.

`CC(C)NC[C@@H](C(=O)N1CCN(c2ncnc3c2[C@H](C)C[C@H]3O)CC1)c1ccc(Cl)cc1` [Composition 140110403, ipatasertib monohydrochloride]: in series [1] (setting [7]), the Bulk density was determined as 0.37 gcm^−3 and the Tapped density stood at 0.52 gcm^−3. Moreover, in series [2] (setting [7]), the “Particle size d10” value is given as 9.4 μm, the “Particle size d50” value came to 27 μm and the “Particle size d90” value is recorded as 61 μm. The “Solid state / Polymorphy (X-Ray, XRPD)” value in series [4] was “amorphous*”.

On to `CC(C)NC[C@@H](C(=O)N1CCN(c2ncnc3c2[C@H](C)C[C@H]3O)CC1)c1ccc(Cl)cc1` [Composition 140110406, ipatasertib monohydrochloride], for which, in series [1] (setting [7]), the Bulk density was determined as 0.41 gcm^−3 and the Tapped density was 0.54 gcm^−3. In series [2] (setting [7]), the “Particle size d10” value was 10.2 μm, the “Particle size d50” value worked out at 26 μm and the “Particle size d90” value turned out to be 53 μm. The “Solid state / Polymorphy (X-Ray, XRPD)” value in series [4] is “amorphous*”.

Regarding `CC(C)NC[C@@H](C(=O)N1CCN(c2ncnc3c2[C@H](C)C[C@H]3O)CC1)c1ccc(Cl)cc1` [Composition 140110404, ipatasertib monohydrochloride], in series [1] (setting [7]), the Bulk density is on record as 0.49 gcm^−3 and the Tapped density came to 0.63 gcm^−3. In series [2] (setting [7]), the “Particle size d10” value is 12.5 μm, the “Particle size d50” value came to 47 μm and the “Particle size d90” value stood at 108 μm. For the same compound, the “Solid state / Polymorphy (X-Ray, XRPD)” value in series [4] was “amorphous*”.

Consider `CC(C)NC[C@@H](C(=O)N1CCN(c2ncnc3c2[C@H](C)C[C@H]3O)CC1)c1ccc(Cl)cc1` [Composition 130810453, ipatasertib monohydrochloride], for which, in series [1] (setting [7]), the Bulk density was 0.30 gcm^−3 and the Tapped density was determined as 0.45 gcm^−3. In series [2] (setting [7]), the “Particle size d10” value is 6.6 μm, the “Particle size d50” value is reported as 20 μm and the “Particle size d90” value was 58 μm. For the same compound, the “Solid state / Polymorphy (X-Ray, XRPD)” value in series [4] is “Amorphous*”.

In series [1] (setting [7]), `CC(C)NC[C@@H](C(=O)N1CCN(c2ncnc3c2[C@H](C)C[C@H]3O)CC1)c1ccc(Cl)cc1` [Composition 130710451, ipatasertib monohydrochloride] showed a Bulk density of 0.48 gcm^−3 and a Tapped density of 0.61 gcm^−3. Besides, in series [2] (setting [7]), the “Particle size d10” value is given as 17 μm, the “Particle size d50” value was determined as 45 μm and the “Particle size d90” value was 88 μm. The “Solid state / Polymorphy (X-Ray, XRPD)” value in series [4] was “Amorphous*”.

On to `CC(C)NC[C@@H](C(=O)N1CCN(c2ncnc3c2[C@H](C)C[C@H]3O)CC1)c1ccc(Cl)cc1` [Composition 140110408, ipatasertib monohydrochloride], for which, in series [1] (setting [7]), the Bulk density came to 0.34 gcm^−3 and the Tapped density is on record as 0.50 gcm^−3. Moreover, in series [2] (setting [7]), the “Particle size d10” value worked out at 9.3 μm, the “Particle size d50” value worked out at 26 μm and the “Particle size d90” value was found to be 58 μm. The “Solid state / Polymorphy (X-Ray, XRPD)” value in series [4] was “amorphous*”.

As to `CC(C)NC[C@@H](C(=O)N1CCN(c2ncnc3c2[C@H](C)C[C@H]3O)CC1)c1ccc(Cl)cc1` [Composition 141210424, ipatasertib monohydrochloride], in series [1] (setting [7]), the Bulk density is 0.37 gcm^−3 and the Tapped density was 0.54 gcm^−3. For the same compound, in series [2] (setting [7]), the “Particle size d10” value was found to be 9.5 μm, the “Particle size d50” value is 27 μm and the “Particle size d90” value is on record as 54 μm. In addition, the “Solid state / Polymorphy (X-Ray, XRPD)” value in series [4] is “amorph.*”.

In series [1] (setting [7]), `CC(C)NC[C@@H](C(=O)N1CCN(c2ncnc3c2[C@H](C)C[C@H]3O)CC1)c1ccc(Cl)cc1` [Composition 140210412, ipatasertib monohydrochloride] displayed a Bulk density of 0.47 gcm^−3 and a Tapped density of 0.60 gcm^−3. Moreover, in series [2] (setting [7]), the “Particle size d10” value is 13 μm, the “Particle size d50” value was 46 μm and the “Particle size d90” value was determined as 94 μm. Besides, in series [4], the “Solid state / Polymorphy (X-Ray, XRPD)” value is given as “amorphous*”.

For the compound `CC(C)NC[C@@H](C(=O)N1CCN(c2ncnc3c2[C@H](C)C[C@H]3O)CC1)c1ccc(Cl)cc1` [Composition 130710450, ipatasertib monohydrochloride], in series [1] (setting [7]), the Bulk density was found to be 0.42 gcm^−3 and the Tapped density came to 0.60 gcm^−3. In addition, in series [2] (setting [7]), the “Particle size d10” value is 14 μm, the “Particle size d50” value turned out to be 40 μm and the “Particle size d90” value turned out to be 79 μm. The “Solid state / Polymorphy (X-Ray, XRPD)” value in series [4] is “Amorphous*”.

As for `CC(C)NC[C@@H](C(=O)N1CCN(c2ncnc3c2[C@H](C)C[C@H]3O)CC1)c1ccc(Cl)cc1` [Composition 141210425, ipatasertib monohydrochloride], in series [1] (setting [7]), the Bulk density amounted to 0.39 gcm^−3 and the Tapped density is listed as 0.54 gcm^−3. In series [2] (setting [7]), the “Particle size d10” value was 11 μm, the “Particle size d50” value was found to be 39 μm and the “Particle size d90” value is listed as 80 μm. Also, the “Solid state / Polymorphy (X-Ray, XRPD)” value in series [4] is listed as “amorph.*”.
